Data on eight compounds can be found in PMC7156629, “Fluorescence anisotropy assays for high throughput screening of compounds binding to lipid II, PBP1b, FtsW and MurJ” (Scientific Reports, 2020).

“Also recorded” adds a separate entry of the source. Like-named read-outs stand apart in the source and are kept apart here.

Assay [1] in a line: FA direct binding of antibiotics/compounds to NBD-lipid II probe. The note with it: for Effect on FA signal of the NBD-lipid II probe (direct binding, no protein): increasing compound concentrations, probe 0.33 µM; for Kd: antibiotic binding to probe 0.33 µM, 10 mM Tris-HCl pH 7.5, 3% DMSO. The method, then: Serial dilutions of each antibiotic in 10 mM Tris-HCl pH 7.5 and 3% DMSO were prepared in 384-well plates (30 µL) in triplicates. […] Blank samples without antibiotic were also prepared for background fluorescence estimation. […] The data were analysed as described above with [R] and [RL] are, respectively, the equilibrium concentration of the compound and the compound-probe complex.

The target of assay [2] is T1, FtsW-PBP3 (Escherichia coli, UniProt P0ABG4). Briefly: FA direct binding of NBD-lipid II probe to FtsW-PBP3 complex. The arrangement: made in house; species or system E. coli. The note with it: probe 0.33 µM. The method, then: (§1) Fluorescent anisotropy (FA) experiments were performed in a black 384-well plate (Greiner Bio-One Polystyrene Non-Binding Flat Bottom) in triplicates. Serial dilutions of the protein (PBP1bγ, FtsW, FtsW-PBP3 or MurJ) in the appropriate buffer and the NBD-lipid II probe was added at a 0.33 µM final concentration. FtsN was used as a negative control under the same conditions. […] Fluorescence polarization (FP) and anisotropy (A) values were calculated using the equations FP = (I|| − G·I┴)/I||+ G·I┴) and A = 2· FP/3-FP respectively, where I|| is the fluorescence intensity of emitted light parallel to excitation, I┴ is the fluorescence intensity of emitted light perpendicular to excitation, and G is the correction factor that correct for instrument bias. The G factor is experimentally determined using the probe alone. […] For Kd determination, the fluorescence anisotropy data were analysed by nonlinear curve fitting to the Eq. (1) using GraphPad Prism 6.0 software[27].1 (A−Amin)/(Amax−Amin)=[RL]=(Kd+[R]+[L])−[(Kd+R]+[L])^2−4[R][L]]^1/2 Where A, Amin, Amax are the observed, the minimum and the maximum anisotropy, respectively, and [R], [L] and [RL] are the equilibrium concentration of the protein, the probe; and the protein-probe complex, respectively; Kd is the dissociation constant between the protein and the probe.

The target of assay [3] is T2, FtsW (Escherichia coli, UniProt P0ABG4). Briefly: FA direct binding of NBD-lipid II probe to FtsW. The arrangement: made in house; species or system E. coli. The note with it: probe 0.33 µM. The procedure: as §1
Assay [4] concerns the target T3, PBP1b (Escherichia coli, UniProt P02919). Description: Fluorescence anisotropy (FA) direct binding of NBD-lipid II probe to PBP1b. The arrangement: made in house; species or system E. coli. Particulars: probe 0.33 µM. The procedure:
as §1
(In general: Polarisation of emitted light reports the rotation of a fluorescent probe.)

In another assay the target is T4, FtsN (Escherichia coli, UniProt P29131).
T4 construct: made in house
Briefly: FA direct binding of NBD-lipid II probe to FtsN (negative control). Particulars: FtsN as negative control. The procedure: as §1

The target in assay [5] is T5, MurJ (Escherichia coli, UniProt P0AF16). Description: FA direct binding of NBD-lipid II probe to MurJ. The arrangement: made in house; species or system E. coli. The note with it: probe 0.33 µM. The method, then:
as §1

Assay [6] addresses T2, FtsW. Description: FA competition assay, FtsW:NBD-lipid II. Particulars: read-out: Ki values (unlabelled-Lipid II); displacement of probe (0.33 µM) from FtsW (~1 µM).
Experimental: (§2) Fixed concentrations of NBD-lipid II (0.33 µM) and proteins (~1 µM, 50–80% FA saturation[29]) were used. Serial dilutions of each antibiotic,unlabelled lipid II, or control compounds were prepared in 384-well plates in triplicates. Blank samples without proteins were also prepared for background fluorescence estimation. The mixtures (30 µL) were allowed to reach equilibrium for 20 min at room temperature with gentle shaking and the FA signals were recorded at 21 °C using an Infinite F Plex (Tecan, Männedorf, Switzerland) microplate reader equipped with polarization filters with excitation and emission wavelengths at 485 nm and 535 nm respectively. The data were plotted FA in millianisotropy units (mA) as a function of test compound concentration in µM. For the analysis of the completion data, fluorescence anisotropy values were fitted to the Eq. (3) using GraphPad Prism 6.0 software[30].3 [RL]=[R]/[1+Kd/[L](1+[C]/)Ki] Where [RL] is concentration of the receptor-probe complex; [R] is the concentration of the protein; [L] is the concentration of the probe; [C] is the concentration of test compound; Kd is the dissociation constant between the receptor and the probe (determined above); Ki is dissociation constant between the test compound and its target.
Assay [7] concerns the target MurJ. The arrangement: method as in Bolla, J. R. et al. Nat. Chem. 10 (2018). Particulars: native mass spectrometry, ref Bolla, J. R. et al. Nat. Chem. 10 (2018), read-out: Kd (Lipid II), values from the literature; cited from earlier work.
For assay [8], the target named is T1, FtsW-PBP3. Description: FA competition assay, FtsW-PBP3:NBD-lipid II. The note with it: read-out: Ki values (unlabelled-Lipid II); displacement of probe (0.33 µM) from FtsW-PBP3 (~1 µM).
Experimental: as §2
For assay [9], the target named is T3, PBP1b. Briefly: FA competition assay, PBP1b:NBD-lipid II. Particulars: read-out: Ki values (unlabelled-Lipid II); displacement of probe (0.33 µM) from PBP1b (~1 µM).
Experimental: as §2
Assay [10] has as its system PBP1b. The arrangement: method as in Terrak, M. et al. Mol. Microbiol. 34 (1999). The note with it: ref Terrak, M. et al. Mol. Microbiol. 34 (1999), read-out: Km (Lipid II), values from the literature, cited from earlier work.
Assay [11] addresses T5, MurJ. Briefly: FA competition assay, MurJ:NBD-lipid II. The note with it: read-out: Ki values (unlabelled-Lipid II); displacement of probe (0.33 µM) from MurJ (~1 µM).
Experimental: as §2
The conditions of assay [12]: ref Lo, M. C. et al. J. Am. Chem. Soc. 122 (2000); read-out: IC50 (Lipid II), values from the literature; cited from earlier work.
The conditions of assay [13]: read-out: Kd (Lipid II), values from the literature, cited from earlier work.

Broadly, the Kd is a measure of binding affinity in units of concentration. The term Ki denotes the dissociation constant of the complex between target and ligand, obtained from inhibition or displacement. As usually defined, the Km is the concentration of substrate that gives half-maximal velocity. The term IC50 denotes the concentration at which inhibition is half-maximal.

T3 sequence (P02919 46-844): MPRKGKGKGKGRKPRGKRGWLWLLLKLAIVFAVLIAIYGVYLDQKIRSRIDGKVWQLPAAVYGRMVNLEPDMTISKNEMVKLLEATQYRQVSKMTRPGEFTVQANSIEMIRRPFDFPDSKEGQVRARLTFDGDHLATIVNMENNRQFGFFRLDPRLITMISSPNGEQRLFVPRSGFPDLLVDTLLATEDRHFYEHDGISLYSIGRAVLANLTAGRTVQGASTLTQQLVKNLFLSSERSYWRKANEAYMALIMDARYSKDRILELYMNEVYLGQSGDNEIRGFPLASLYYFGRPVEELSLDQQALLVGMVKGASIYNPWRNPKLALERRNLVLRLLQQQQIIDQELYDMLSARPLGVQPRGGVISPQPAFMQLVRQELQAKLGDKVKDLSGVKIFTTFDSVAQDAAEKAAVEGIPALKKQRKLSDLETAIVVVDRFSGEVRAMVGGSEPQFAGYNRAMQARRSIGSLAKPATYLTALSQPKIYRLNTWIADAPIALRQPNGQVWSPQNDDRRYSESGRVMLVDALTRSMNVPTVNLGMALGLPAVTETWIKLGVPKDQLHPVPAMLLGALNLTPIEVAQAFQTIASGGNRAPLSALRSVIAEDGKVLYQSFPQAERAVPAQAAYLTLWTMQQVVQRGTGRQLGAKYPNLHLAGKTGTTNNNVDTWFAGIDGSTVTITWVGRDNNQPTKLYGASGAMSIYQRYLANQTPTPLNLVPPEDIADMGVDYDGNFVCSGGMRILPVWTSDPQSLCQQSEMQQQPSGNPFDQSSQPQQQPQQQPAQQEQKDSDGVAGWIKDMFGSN
T1 sequence (P0ABG4 whole entry): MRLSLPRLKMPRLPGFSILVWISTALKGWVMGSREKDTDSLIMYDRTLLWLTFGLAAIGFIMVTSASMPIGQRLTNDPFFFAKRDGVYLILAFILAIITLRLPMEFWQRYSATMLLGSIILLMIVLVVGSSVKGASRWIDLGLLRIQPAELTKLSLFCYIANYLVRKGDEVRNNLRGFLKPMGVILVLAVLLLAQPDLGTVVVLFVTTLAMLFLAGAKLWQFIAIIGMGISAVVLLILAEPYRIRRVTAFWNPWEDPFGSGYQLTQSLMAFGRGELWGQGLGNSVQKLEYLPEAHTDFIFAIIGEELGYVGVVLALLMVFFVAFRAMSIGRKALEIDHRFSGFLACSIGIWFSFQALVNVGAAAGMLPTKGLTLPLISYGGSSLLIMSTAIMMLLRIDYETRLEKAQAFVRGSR
T1 sequence (P0AD68 1-577, further chain): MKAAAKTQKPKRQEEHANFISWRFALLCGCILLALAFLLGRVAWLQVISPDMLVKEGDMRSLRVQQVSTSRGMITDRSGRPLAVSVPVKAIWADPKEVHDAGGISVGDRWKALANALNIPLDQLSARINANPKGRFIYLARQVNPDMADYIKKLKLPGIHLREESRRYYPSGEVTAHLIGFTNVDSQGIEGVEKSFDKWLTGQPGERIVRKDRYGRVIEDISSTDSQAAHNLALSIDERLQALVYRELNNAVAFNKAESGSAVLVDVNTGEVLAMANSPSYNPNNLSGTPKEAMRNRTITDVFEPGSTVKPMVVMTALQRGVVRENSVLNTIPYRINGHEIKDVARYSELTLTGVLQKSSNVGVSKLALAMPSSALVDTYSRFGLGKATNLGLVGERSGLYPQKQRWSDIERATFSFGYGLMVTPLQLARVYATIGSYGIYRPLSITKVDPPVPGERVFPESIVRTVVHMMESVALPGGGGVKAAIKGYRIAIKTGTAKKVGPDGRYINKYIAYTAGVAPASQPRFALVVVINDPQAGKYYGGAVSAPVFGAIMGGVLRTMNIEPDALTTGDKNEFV
T2 sequence (P0ABG4 whole entry): as the sequence (P0ABG4 whole entry) above
T5 sequence (P0AF16 whole entry): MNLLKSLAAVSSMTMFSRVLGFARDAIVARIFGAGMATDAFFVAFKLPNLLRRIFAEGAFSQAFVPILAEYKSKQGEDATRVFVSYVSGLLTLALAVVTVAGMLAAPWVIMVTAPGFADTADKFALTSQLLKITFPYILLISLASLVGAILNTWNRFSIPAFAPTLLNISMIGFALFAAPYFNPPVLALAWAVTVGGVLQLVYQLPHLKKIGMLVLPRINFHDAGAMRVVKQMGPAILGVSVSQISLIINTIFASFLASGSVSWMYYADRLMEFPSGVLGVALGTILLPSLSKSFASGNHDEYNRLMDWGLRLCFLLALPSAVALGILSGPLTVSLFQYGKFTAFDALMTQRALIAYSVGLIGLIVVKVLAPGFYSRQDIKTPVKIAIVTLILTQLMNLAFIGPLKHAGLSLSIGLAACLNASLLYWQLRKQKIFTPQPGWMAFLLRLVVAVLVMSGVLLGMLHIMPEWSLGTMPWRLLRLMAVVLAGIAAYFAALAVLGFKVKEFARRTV
T4 sequence (P29131 whole entry): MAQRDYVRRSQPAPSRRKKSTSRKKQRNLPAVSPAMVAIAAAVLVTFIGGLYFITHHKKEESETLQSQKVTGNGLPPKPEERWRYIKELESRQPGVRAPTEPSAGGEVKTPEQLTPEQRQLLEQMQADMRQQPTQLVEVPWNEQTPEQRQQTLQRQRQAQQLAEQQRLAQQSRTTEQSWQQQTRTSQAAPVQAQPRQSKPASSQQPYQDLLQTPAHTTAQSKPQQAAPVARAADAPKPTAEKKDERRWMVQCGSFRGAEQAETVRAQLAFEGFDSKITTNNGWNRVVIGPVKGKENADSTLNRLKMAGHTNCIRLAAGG

Turning to `C=C(C/C=C(\C)CCC=C(C)C)CCC(C)(C)/C=C/CC/C(C)=C/CO[C@@H](COP(=O)(O)O[C@H]1O[C@H](C(N)=O)[C@@](C)(O)[C@H](OC(N)=O)[C@H]1O[C@@H]1O[C@H](CO[C@@H]2O[C@H](CO)[C@@H](O)[C@H](O)[C@H]2O)[C@@H](O[C@@H]2O[C@H](C)[C@@H](O[C@@H]3O[C@H](C(=O)NC4=C(O)CCC4=O)[C@H](O)[C@H](O)[C@H]3O)[C@H](O)[C@H]2NC(C)=O)[C@H](O)[C@H]1NC(C)=O)C(=O)O` [moenomycin A, Moenomycin A], the “Effect on FA signal of the NBD-lipid II probe (direct binding, no protein)” value (“Effect … (direct binding, no protein)” below) in assay [1] is “did not significantly affect the FA signal”; in assay [1] (listed as Moenomycin), “no effect on the FA of the probe”.
Consider `CC(=O)N[C@H]1[C@H](O[C@H]2[C@H](O[C@H](C)C(=O)N[C@@H](C)C(=O)N[C@H](CCC(=O)N[C@@H](CCCCNc3ccc([N+](=O)[O-])c4nonc34)C(=O)N[C@H](C)C(=O)N[C@H](C)C(=O)O)C(=O)O)[C@@H](NC(C)=O)[C@@H](OP(=O)(O)OP(=O)(O)OC/C=C(/C)CC/C=C(/C)CC/C=C(/C)CC/C=C(/C)CC/C=C(/C)CC/C=C(/C)CC/C=C(/C)CC/C=C(/C)CC/C=C(\C)CC/C=C(\C)CCC=C(C)C)O[C@@H]2CO)O[C@H](CO)[C@@H](O)[C@@H]1O` [NBD-lipid II, Nitrobenzoxadiazole (NBD)-labelled Lipid II], for which the Kd at FtsW-PBP3 [2] was determined as 300 ± 100 nM; at FtsW [3], 300 ± 100 nM; on PBP1b [4], 500 ± 200 nM; at MurJ [5], 1100 ± 300 nM. For the same compound, the “Effect of FtsN on FA of the probe” value on FtsN is on record as “had no effect on the FA of the probe”.
Take `N[C@@H](Cc1c[nH]c2ccccc12)C(=O)O` [tryptophan]: in assay [1], the “Effect … (direct binding, no protein)” value is listed as “do not bind to the probe; also recorded: no significant effect on the FA of the probe”.
`CC(=O)N[C@H]1[C@H](O[C@H]2[C@H](O[C@H](C)C(=O)N[C@@H](C)C(=O)N[C@H](CCC(=O)N[C@@H](CCCCN)C(=O)N[C@H](C)C(=O)N[C@H](C)C(=O)O)C(=O)O)[C@@H](NC(C)=O)[C@@H](OP(=O)(O)OP(=O)(O)OC/C=C(/C)CC/C=C(/C)CC/C=C(/C)CC/C=C(/C)CC/C=C(/C)CC/C=C(/C)CC/C=C(/C)CC/C=C(/C)CC/C=C(\C)CC/C=C(\C)CCC=C(C)C)O[C@@H]2CO)O[C@H](CO)[C@@H](O)[C@@H]1O` [unlabelled lipid II, undecaprenyl-pyrophosphoryl-MurNAc(pentapeptide)-(beta-1,4)-GlcNAc]: the Ki turned out to be 5900 ± 1800 nM on FtsW [6], 6800 ± 1000 nM at FtsW-PBP3 [8], 1400 ± 200 nM on PBP1b [9] and 4600 ± 800 nM at MurJ [11]. Also, the Kd at MurJ [7] was 2900 nM. The “Effect … (direct binding, no protein)” value in assay [1] is “no direct effect on the FA of the probe”; in [1] (listed as unlabeled lipid II), “did not significantly affect the FA signal”. Moreover, the Km in the assay with PBP1b [10] (listed as Lipid II) is 1.8 ± 0.8 µM; with PBP1b [10] (listed as lipid II), ~2 µM.
In the case of ramoplanin, in assay [1], the Kd was found to be 230 ± 50 nM and the “Effect … (direct binding, no protein)” value is on record as “induced an increase of FA”. The IC50 in assay [12] was 300 nM.
Take `CC1(C)S[C@@H]2[C@H](NC(=O)[C@H](N)c3ccccc3)C(=O)N2[C@H]1C(=O)O` [Ampicillin]: the “Effect … (direct binding, no protein)” value in assay [1] is reported as “no significant effect on the FA of the probe”; in assay [1] (listed as ampicillin) it was “do not bind to the probe”.
For `CN[C@H](CC(C)C)C(=O)N[C@H]1C(=O)N[C@@H](CC(N)=O)C(=O)N[C@H]2C(=O)N[C@H]3C(=O)N[C@H](C(=O)N[C@H](C(=O)O)c4cc(O)cc(O)c4-c4cc3ccc4O)[C@H](O)c3ccc(c(Cl)c3)Oc3cc2cc(c3O[C@@H]2O[C@H](CO)[C@@H](O)[C@H](O)[C@H]2O[C@H]2C[C@](C)(N)[C@H](O)[C@H](C)O2)Oc2ccc(cc2Cl)[C@H]1O` [Vancomycin, vancomycin], the Kd in assay [13] (ref Münch, D. & Sahl, H.-G. Biochim. Biophys. Acta 1848 (2015)) is 500 nM. For the same compound, in assay [1], the Kd was found to be 300 ± 100 nM and the “Effect … (direct binding, no protein)” value is reported as “induced an increase of FA”.
On to “nisin (ITSISLCTPGCKTGALMGCNMKTATCHCSIHVSK; not fully specified; Lantibiotic nisin-A; UniProt P13068 24-57, looked up)”, for which the Kd in [13] (ref 'T Hart, P. et al. Biochemistry 55 (2016)) is 14.6 to 50 nM. Moreover, in [1], the Kd came to 300 ± 100 nM and the “Effect … (direct binding, no protein)” value is on record as “induced an increase of FA”.
